According to patent publication US9090628B2, “Benzoxazepin compounds selective for PI3K P110 delta and methods of use” (GENENTECH, INC., priority 2011, dated 2015):

Tests used:
p110 delta = p110 delta (Homo sapiens (Human), UniProt O00329); experiment: PI3K isoform inhibition assay, p110 delta (fluorescence polarization displacement); format: biochemical
p110 alpha = p110 alpha (Homo sapiens (Human), UniProt P42336); experiment: PI3K isoform inhibition assay, p110 alpha (for alpha/delta selectivity); settings: ratio of biochemical IC50 values
Procedure, shortened: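 Fluorescence polarization displacement of a fluorescent PIP3 probe from GRP-1 detector by PI3K-formed PIP3; p110α/p85α at 40 ng/mL with 10 μM PIP2 substrate.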

[1] = test system: CD69 production by B lymphocytes in human whole blood activated with anti-human IgM; experiment: CD69 Whole Blood Assay; format: cell-based; settings: Lymphocyte, anti-IgM stimulated, CD69 positive of CD20 positive cells
Source text: There is good evidence that B-cells play a key role in the pathogenesis of autoimmune and/or inflammatory disease. Protein-based therapeutics that deplete B cells such as Rituxan are effective against autoantibody-driven inflammatory diseases such as rheumatoid arthritis (Rastetter et al. (2004) Annu Rev Med 55:477). CD69 is the early activation marker in leukocytes including T cells, thymocytes, B cells, NK cells, neutrophils, and eosinophils. The CD69 human whole blood assay (Example 903) determines the ability of compounds to inhibit the production of CD69 by B lymphocytes in human whole blood activated by crosslinking surface IgM with goat F(ab′)2 anti-human IgM.
Human blood is obtained from healthy volunteers, with the following restrictions: 1 week drug-free, non-smokers. Blood (approximately 20 mls to test 8 compounds) is collected by venipuncture into Vacutainer tubes with sodium heparin.
Solutions of Formula I compounds at 1000 or 2000 μM in PBS (20×), are diluted by three-fold serial dilutions in 10% DMSO in PBS for a nine point dose-response curve. An aliquot of 5.5 μl of each compound is added in duplicate to a 2 ml 96-well plate; 5.5 μl of 10% DMSO in PBS is added as control and no-stimulus wells. Human whole blood—HWB (100 μl) is added to each well. After mixing the plates are incubated at 37° C., 5% CO2, 100% humidity for 30 minutes. Goat F(ab′)2 anti-human IgM (10 μl of a 500 μg/ml solution, 50 μg/ml final) is added to each well (except the no-stimulus wells) with mixing and the plates are incubated for an additional 20 hours. At the end of the 20 hour incubation, samples are incubated with fluorescent labeled antibodies for 30 minutes, at 37° C., 5% CO2, 100% humidity. Include induced control, unstained and single stains for compensation adjustments and initial voltage settings. Samples are then lysed with Pharmingen Lyse according to the manufacturer's instructions. Samples are then transferred to a 96 well plate suitable to be run on the AMS 96 well system on the BD Calibur FACs machine. Data acquired and Mean Fluorescence Intensity values were obtained using Cell Quest Software. Results are initially analyzed by FACS analysis software (Flow Jo).

Chain of p110 delta (O00329 whole entry, canonical isoform): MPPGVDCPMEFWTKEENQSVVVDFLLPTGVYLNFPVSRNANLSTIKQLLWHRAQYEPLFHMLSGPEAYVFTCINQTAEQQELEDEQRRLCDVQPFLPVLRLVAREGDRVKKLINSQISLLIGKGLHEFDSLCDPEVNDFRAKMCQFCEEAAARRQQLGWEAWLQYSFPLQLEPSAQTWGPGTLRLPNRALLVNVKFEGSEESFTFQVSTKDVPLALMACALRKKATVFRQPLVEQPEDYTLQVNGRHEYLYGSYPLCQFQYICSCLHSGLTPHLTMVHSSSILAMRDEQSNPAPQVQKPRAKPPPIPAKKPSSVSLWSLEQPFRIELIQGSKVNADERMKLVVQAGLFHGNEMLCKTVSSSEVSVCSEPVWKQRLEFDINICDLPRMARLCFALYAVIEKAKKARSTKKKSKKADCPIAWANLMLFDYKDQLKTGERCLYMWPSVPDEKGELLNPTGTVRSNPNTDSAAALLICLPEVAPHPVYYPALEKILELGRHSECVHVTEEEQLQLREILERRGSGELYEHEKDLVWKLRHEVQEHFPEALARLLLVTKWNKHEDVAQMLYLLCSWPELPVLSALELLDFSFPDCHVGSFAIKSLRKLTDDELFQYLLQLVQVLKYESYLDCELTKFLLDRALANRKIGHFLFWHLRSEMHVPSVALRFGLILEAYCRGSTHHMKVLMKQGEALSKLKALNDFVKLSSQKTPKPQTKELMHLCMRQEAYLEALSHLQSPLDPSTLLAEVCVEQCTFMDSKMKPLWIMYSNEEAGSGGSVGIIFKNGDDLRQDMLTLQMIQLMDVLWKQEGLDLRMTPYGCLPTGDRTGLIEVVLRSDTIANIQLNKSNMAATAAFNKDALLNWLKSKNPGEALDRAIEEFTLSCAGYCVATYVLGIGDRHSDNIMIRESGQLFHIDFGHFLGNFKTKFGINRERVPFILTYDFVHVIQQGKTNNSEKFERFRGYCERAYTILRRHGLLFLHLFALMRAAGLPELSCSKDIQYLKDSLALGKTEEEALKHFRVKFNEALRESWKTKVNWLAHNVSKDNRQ
Chain of p110 delta (P27986 whole entry partner, canonical isoform): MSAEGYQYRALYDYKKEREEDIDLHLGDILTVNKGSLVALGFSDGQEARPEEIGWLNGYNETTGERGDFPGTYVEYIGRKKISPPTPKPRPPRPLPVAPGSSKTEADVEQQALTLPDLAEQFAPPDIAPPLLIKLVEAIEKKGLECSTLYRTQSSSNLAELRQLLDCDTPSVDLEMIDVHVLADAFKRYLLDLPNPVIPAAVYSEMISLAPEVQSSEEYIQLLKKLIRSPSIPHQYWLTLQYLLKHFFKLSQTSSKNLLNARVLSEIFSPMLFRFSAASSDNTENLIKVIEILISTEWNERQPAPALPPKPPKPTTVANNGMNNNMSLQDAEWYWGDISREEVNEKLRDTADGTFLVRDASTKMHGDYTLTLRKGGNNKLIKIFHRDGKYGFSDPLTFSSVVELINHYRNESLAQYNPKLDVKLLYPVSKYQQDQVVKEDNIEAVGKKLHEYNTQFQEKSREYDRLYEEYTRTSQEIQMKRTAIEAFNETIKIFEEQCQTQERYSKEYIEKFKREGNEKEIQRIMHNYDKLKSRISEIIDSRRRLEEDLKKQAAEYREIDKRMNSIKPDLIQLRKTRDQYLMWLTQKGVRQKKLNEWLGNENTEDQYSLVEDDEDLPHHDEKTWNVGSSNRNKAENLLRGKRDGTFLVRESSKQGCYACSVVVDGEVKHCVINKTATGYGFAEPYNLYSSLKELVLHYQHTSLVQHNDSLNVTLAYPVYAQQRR
Chain of p110 alpha (P42336 whole entry, canonical isoform): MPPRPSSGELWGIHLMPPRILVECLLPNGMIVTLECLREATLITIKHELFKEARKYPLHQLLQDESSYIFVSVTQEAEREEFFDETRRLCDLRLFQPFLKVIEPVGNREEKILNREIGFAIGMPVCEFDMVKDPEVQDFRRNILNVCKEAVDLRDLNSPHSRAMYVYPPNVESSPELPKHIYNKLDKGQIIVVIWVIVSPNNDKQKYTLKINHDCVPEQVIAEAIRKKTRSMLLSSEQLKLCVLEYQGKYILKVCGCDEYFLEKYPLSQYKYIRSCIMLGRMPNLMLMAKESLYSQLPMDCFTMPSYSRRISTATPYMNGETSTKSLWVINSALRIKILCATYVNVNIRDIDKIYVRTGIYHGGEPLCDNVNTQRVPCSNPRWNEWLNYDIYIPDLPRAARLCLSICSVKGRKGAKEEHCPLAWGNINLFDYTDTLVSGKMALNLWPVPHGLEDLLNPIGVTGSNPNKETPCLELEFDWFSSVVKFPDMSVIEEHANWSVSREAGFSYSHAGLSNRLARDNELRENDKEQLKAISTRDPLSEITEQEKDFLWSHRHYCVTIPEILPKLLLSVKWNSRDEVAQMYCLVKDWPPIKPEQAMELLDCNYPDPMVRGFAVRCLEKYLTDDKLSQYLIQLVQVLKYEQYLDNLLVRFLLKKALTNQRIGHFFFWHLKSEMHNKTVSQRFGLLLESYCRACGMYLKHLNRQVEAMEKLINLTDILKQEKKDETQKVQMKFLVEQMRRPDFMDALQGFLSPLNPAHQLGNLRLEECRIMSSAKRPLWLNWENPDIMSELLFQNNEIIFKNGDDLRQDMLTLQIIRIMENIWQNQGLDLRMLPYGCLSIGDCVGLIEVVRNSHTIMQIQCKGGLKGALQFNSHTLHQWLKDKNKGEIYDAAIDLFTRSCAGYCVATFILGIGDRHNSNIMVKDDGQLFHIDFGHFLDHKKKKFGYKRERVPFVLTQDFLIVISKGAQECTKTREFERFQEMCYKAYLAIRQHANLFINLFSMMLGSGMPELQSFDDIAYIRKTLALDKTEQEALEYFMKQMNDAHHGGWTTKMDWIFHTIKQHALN
Chain of p110 alpha (P27986 whole entry partner, canonical isoform): as the sequence (P27986 whole entry partner, canonical isoform) above

Row | SMILES | IC50 [1] [nM] | IC50 (p110 delta) [nM] | IC50 p110 alpha/IC50 p110 delta (p110 alpha)
1 | CC(C)n1ncnc1-c1cn2c(n1)-c1cc(CN3CCN(C(C)(C)C)CC3)ccc1OCC2 [Example 108, 10-((4-tert-butylpiperazin-1-yl)methyl)-2-(1-isopropyl-1H-1,2,4-triazol-5-yl)-5,6-dihydrobenzo[f]imidazo[1,2-d][1,4]oxazepine] | 40.5 | 2.46 | 21.8
2 | CC(C)n1ncnc1-c1cn2c(n1)-c1cc(C(=O)N3CCN(C(C)(C)C)CC3)ccc1OCC2 [Example 110, (4-tert-butylpiperazin-1-yl)(2-(1-isopropyl-1H-1,2,4-triazol-5-yl)-5,6-dihydrobenzo[f]imidazo[1,2-d][1,4]oxazepin-10-yl)methanone] | 129 | 0.919 | 27.1
3 | CC(Oc1ccc2c(c1)OCCn1cc(-c3ncnn3C(C)C)nc1-2)C1CCN(C(C)C)CC1 (stereo not shown) [Example 143, 2-(1-isopropyl-1H-1,2,4-triazol-5-yl)-9-(1-(1-isopropylpiperidin-4-yl)ethoxy)-5,6-dihydrobenzo[f]imidazo[1,2-d][1,4]oxazepine] | 58.2 | 0.442 | 14.4
4 | Cc1nc(-c2cn3c(n2)-c2ccc(-c4cnn(C)c4C4CCCN(C(C)(C)CO)C4)cc2OCC3)n(C(C)C)n1 (stereo not shown) [Example 248, 2-(3-(4-(2-(1-isopropyl-3-methyl-1H-1,2,4-triazol-5-yl)-5,6-dihydrobenzo[f]imidazo[1,2-d][1,4]oxazepin-9-yl)-1-methyl-1H-pyrazol-5-yl)piperidin-1-yl)-2-methylpropan-1-ol] | 49.7 | – | –
5 | Cc1nc(-c2cn3c(n2)-c2ccc(N4CCC[C@@H]4C4CCN(C(C)C)CC4)cc2OCC3)n(C(C)C)n1 [Example 263, (R)-2-(1-isopropyl-3-methyl-1H-1,2,4-triazol-5-yl)-9-(2-(1-isopropylpiperidin-4-yl)pyrrolidin-1-yl)-5,6-dihydrobenzo[f]imidazo[1,2-d][1,4]oxazepine] | 45.8 | – | –

The next lines start with results.

Row | IC50 [1] [nM] | SMILES | IC50 (p110 delta) [nM] | IC50 p110 alpha/IC50 p110 delta (p110 alpha)
6 | 38.1 | CC(C)n1ncnc1-c1cn2c(n1)-c1cnc(N3CCCC3C3CCN(C)CC3)cc1OCC2 (stereo not shown) [Example 115, 2-(1-isopropyl-1H-1,2,4-triazol-5-yl)-9-(2-(1-methylpiperidin-4-yl)pyrrolidin-1-yl)-5,6-dihydroimidazo[1,2-d]pyrido[3,4-f][1,4]oxazepine] | – | –
7 | 45.9 | CC(C)n1ncnc1-c1cn2c(n1)-c1ccc(-c3ccnn3C3CCN(C)CC3)cc1OCC2 [Example 160, 2-(1-isopropyl-1H-1,2,4-triazol-5-yl)-9-(1-(1-methylpiperidin-4-yl)-1H-pyrazol-5-yl)-5,6-dihydrobenzo[f]imidazo[1,2-d][1,4]oxazepine] | – | –
